Legend:
[1] = Dissolution profile of chewable tablet (release of pseudoephedrine and chlorpheniramine); type: physicochemical
Excerpt: Below is a list of actual assay results for one example of the present invention with the composition listed as formula II above.
Below is a list of assay results for one example of the present invention with the composition listed as formula II above.

[2] = Dissolution profile of capsule (release of pseudoephedrine and chlorpheniramine); type: physicochemical; conditions: Table 4, capsules
Excerpt: In addition the composition may be in the form of a capsule. Below is a list of actual assay results for one example of the present invention when in the form of a capsule.

[3] = Table 1, chewable tablet, composition formula II
[4] = Table 2, after Example III, text says formula II
[5] = Table 3, composition listed as formula II

Row | Structure (SMILES) | release, 30 min (%) [1, 3] | release, 1 Hr (%) [1, 3] | release, 3 Hr (%) [1, 3] | release, 8 Hr (%) [1, 3] | release, 30 min (%) [1, 4] | release, 1 Hr (%) [1, 4] | release, 3 Hr (%) [1, 4] | release, 8 Hr (%) [1, 4] | release, 30 min (%) [1, 5] | release, 1 Hr (%) [1, 5] | release, 3 Hr (%) [1, 5] | release, 8 Hr (%) [1, 5] | release, 90 min (%) [2] | release, 3 Hr (%) [2] | release, 6 Hr (%) [2] | release, 12 Hr (%) [2] | release, 30 min (%) ([1]; Table 1, chewable tablet, composition formula II, listed as pseudoephedrine)
1 | CN(C)CCC(c1ccc(Cl)cc1)c1ccccn1 (stereo not drawn) [Chlorpheniramine] | 35.1% | 42.7% | 51.6% | 60.8% | 36.4% | 42.1% | 51.0% | 60.7% | 40.1% | 45.1% | 53.3% | 62.1% | 21.9% | 35.4% | 55.2% | 78.6% | –
2 | CN[C@@H](C)[C@@H](O)c1ccccc1 [Pseudoephedrine] | 27.6% | 37.8% | 59.4% | 82.0% | 27.0% | 36.3% | 53.0% | 78.4% | 29.2% | 39.7% | 61.2% | 85.2% | 34.8% | 54.1% | 75.4% | 91.7% | 26.7%

— patent US8840924B2, “Compositions and methods of making rapidly dissolving ionically masked formulations” (NEOS Therapeutics, LP, priority 2005, dated 2014)
